Biological target: T1, human Polq polymerase domain (Homo sapiens, UniProt O75417)
T1 sequence (O75417 1792-2590): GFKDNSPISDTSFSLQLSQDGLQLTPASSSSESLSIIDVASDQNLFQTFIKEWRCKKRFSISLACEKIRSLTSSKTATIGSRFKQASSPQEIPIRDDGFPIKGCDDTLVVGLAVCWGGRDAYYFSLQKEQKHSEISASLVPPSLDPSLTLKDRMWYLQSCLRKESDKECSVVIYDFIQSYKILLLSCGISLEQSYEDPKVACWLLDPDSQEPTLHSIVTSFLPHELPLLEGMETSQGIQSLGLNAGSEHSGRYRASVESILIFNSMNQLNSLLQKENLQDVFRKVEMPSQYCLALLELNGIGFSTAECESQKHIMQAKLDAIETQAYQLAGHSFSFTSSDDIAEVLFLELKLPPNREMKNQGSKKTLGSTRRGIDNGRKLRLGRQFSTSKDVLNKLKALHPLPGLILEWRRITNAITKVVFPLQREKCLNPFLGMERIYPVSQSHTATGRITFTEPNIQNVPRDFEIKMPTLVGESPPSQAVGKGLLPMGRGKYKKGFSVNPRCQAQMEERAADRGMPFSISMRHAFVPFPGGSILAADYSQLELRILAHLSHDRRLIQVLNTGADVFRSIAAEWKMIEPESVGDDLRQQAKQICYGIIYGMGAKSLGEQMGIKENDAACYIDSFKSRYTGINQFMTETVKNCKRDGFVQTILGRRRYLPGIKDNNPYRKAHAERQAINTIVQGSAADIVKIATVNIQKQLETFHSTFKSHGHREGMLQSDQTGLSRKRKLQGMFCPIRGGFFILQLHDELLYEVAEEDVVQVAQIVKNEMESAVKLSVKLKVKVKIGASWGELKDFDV
Assay: Cy5 fluorescence assay of Polq polymerase domain inhibition
Assay type: biochemical
Conditions: not given
Method: The following Cy5 fluorescence assay was used to measure the ability of compounds to inhibit Polq polymerase domain in vitro. The fluorescent based assay was performed as follows: 60 nM of the pre-annealed primer-template containing a 5′ Cy5 fluorophore conjugated template strand (SEQ ID NO:3: 5′-/5Cy5/[…]-3′), a downstream complementary oligo conjugated with a 3′ Blackhole quencher (SEQ ID NO:4: 5′-CTAAGCTCACAGTG/3IAbRQSp/-3′) and a primer strand (SEQ ID NO:5: 5′-CTGTCCTGCATGATG-3′) was mixed with 50 uM 2′-deoxyribonucleoside triphosphates (dNTPs), 0.1 mg/mL Bovine serum albumin (BSA), 0.01% NP-40, 10% glycerol, 1 mM dithiothreitol (DTT), 10 mM MgCl2, 25 mM TrisHCl pH 7.8 in the presence of 2.5% DMSO with or without various concentrations (7-point dilution series) of Polq small molecule inhibitors represented by Formula I at 37 °C in a volume of 40 μL.

| SMILES | IC50 [nM] |
| --- | --- |
| CN1C(=O)CN(c2cc(C(F)(F)F)cc(C(F)(F)F)c2OC(=O)N(C)c2ccc(F)cc2)C1=O [Example 27, 2-(3-methyl-2,4-dioxoimidazolidin-1-yl)-4,6-bis(trifluoromethyl)phenyl N-(4-fluorophenyl)-N-methylcarbamate] | 24 |
| Cc1cc(N(C)C(=O)Oc2c(N3CCNC3=O)cc(C(F)(F)F)cc2C(F)(F)F)ccc1F [Example 28, 2-(2-oxoimidazolidin-1-yl)-4,6-bis(trifluoromethyl)phenyl N-(4-fluoro-3-methylphenyl)-N-methylcarbamate] | 1200 |
| CN(C(=O)Oc1c(N2CCNC2=O)cc(C(F)(F)F)cc1C(F)(F)F)c1ccc2ccn(C)c2n1 [Example 29, 2-(2-oxoimidazolidin-1-yl)-4,6-bis(trifluoromethyl)phenyl N-methyl-N-{1-methyl-1H-pyrrolo[2,3-b]pyridin-6-yl}carbamate] | 18000 |
| CN(C(=O)Oc1c(N2CCN(CCOS(=O)(=O)NC(=O)COCCOCCOCCN)C2=O)cc(C(F)(F)F)cc1C(F)(F)F)c1ccc(F)cc1 [Example 30, 2-(3-(2-(((4-fluorophenyl)(methyl)carbamoyl)oxy)-3,5-bis(trifluoromethyl)phenyl)-2-oxoimidazolidin-1-yl)ethyl (2-(2-(2-(2-aminoehoxy)ethoxy)ethoxy)acetyl)sulfamate] | 2.2 |
| CN(C(=O)Oc1c(N2CCN(CCOC(F)F)C2=O)cc(C(F)(F)F)cc1C(F)(F)F)c1ccc(F)cc1 [Example 32, 2-(3-(2-(difluoromethoxy)ethyl)-2-oxoimidazolidin-1-yl)-4,6-bis(trifluoromethyl)phenyl N-(4-fluorophenyl)-N-methylcarbamate] | 2.3 |
| CN(C(=O)Oc1c(N2CCN(C3CC(O)C3)C2=O)cc(C(F)(F)F)cc1C(F)(F)F)c1ccc(F)cc1 (stereo not drawn) [Example 34, 2-(3-(3-hydroxycyclobutyl)-2-oxoimidazolidin-1-yl)-4,6-bis(trifluoromethyl)phenyl (4-Fluorophenyl)(methyl)carbamate] | 2 |
| CN(C(=O)Oc1c(N2CCN(C3CCS(=O)(=O)C3)C2=O)cc(C(F)(F)F)cc1C(F)(F)F)c1ccc(F)cc1 (stereo not drawn) [Example 35, 2-(3-(1,1-dioxidotetrahydrothiophen-3-yl)-2-oxoimidazolidin-1-yl)-4,6-bis(trifluoromethyl)phenyl (4-fluorophenyl)(methyl)carbamate] | 2.5 |
| [2H]C([2H])([2H])N(C(=O)Oc1c(N2CCN(CC3(O)CNC3)C2=O)cc(C(F)(F)F)cc1C(F)(F)F)c1ccc(F)cc1 [Example 36, 2-(3-((3-hydroxyazetidin-3-yl)methyl)-2-oxoimidazolidin-1-yl)-4,6-bis(trifluoromethyl)phenyl (4-fluorophenyl)(methyl-d3)carbamate] | 6 |
| [2H]C([2H])([2H])N(C(=O)Oc1c(N2CCN(CC3(O)CNC3)C2=O)cc(C(F)(F)F)cc1C(F)(F)F)c1ccc(F)c(Cl)c1F [Example 37, 2-(3-((3-hydroxyazetidin-3-yl)methyl)-2-oxoimidazolidin-1-yl)-4,6-bis(trifluoromethyl)phenyl (3-chloro-2,4-difluorophenyl)(methyl-d3)carbamate] | 2.7 |
| CN(C(=O)Oc1c(N2CCN(CC3(O)CNC3)C2=O)cc(C(F)(F)F)cc1C(F)(F)F)c1ccc(F)c(Cl)c1F [Example 38, 2,4-bis(trifluoromethyl)-6-(3-((3-hydroxyazetidin-3-yl)methyl)-2-oxoimidazolidin-1-yl)phenyl (3-chloro-2,4-difluorophenyl)(methyl)carbamate] | 7.8 |
| [2H]C([2H])([2H])N(C(=O)Oc1c(N2CCN(CC3(OS(N)(=O)=O)CN(C(=O)OC(C)(C)C)C3)C2=O)cc(C(F)(F)F)cc1C(F)(F)F)c1ccc(F)c(Cl)c1F [Example 39, tert-butyl 3-((3-(2-(((3-chloro-2,4-difluorophenyl)(methyl-d3)carbamoyl)oxy)-3,5-bis(trifluoromethyl)phenyl)-2-oxoimidazolidin-1-yl)methyl)-3-(sulfamoyloxy)azetidine-1-carboxylate] | 3.8 |
| [2H]C([2H])([2H])N(C(=O)Oc1c(N2CCN(CC(O)CN(C)C)C2=O)cc(C(F)(F)F)cc1C(F)(F)F)c1ccc(F)c(Cl)c1F (stereo not drawn) [Example 40, 2-(3-(3-(dimethylamino)-2-hydroxypropyl)-2-oxoimidazolidin-1-yl)-4,6-bis(trifluoromethyl)phenyl (3-chloro-2,4-difluorophenyl)(methyl-d3)carbamate] | 6.3 |
| [2H]C([2H])([2H])N(C(=O)Oc1c(N2C[C@@H](O)[C@@H](O)C2)cc(C(F)(F)F)cc1C(F)(F)F)c1ccc(F)cc1 [Example 41] | 5.5 |
| [2H]C([2H])([2H])N(C(=O)Oc1c(N2CCN(CCn3ccnc3)C2=O)cc(C(F)(F)F)cc1C(F)(F)F)c1ccc(F)cc1 [Example 42, 2-(3-(2-(1H-imidazol-1-yl)ethyl)-2-oxoimidazolidin-1-yl)-4,6-bis(trifluoromethyl)phenyl (4-fluorophenyl)(methyl-d3)carbamate] | 11.7 |
| [2H]C([2H])([2H])N(C(=O)Oc1c(N2CCN(CCn3cnnc3)C2=O)cc(C(F)(F)F)cc1C(F)(F)F)c1ccc(F)cc1 [Example 43, 2-(3-(2-(4H-1,2,4-triazol-4-yl)ethyl)-2-oxoimidazolidin-1-yl)-4,6-bis(trifluoromethyl)phenyl (4-fluorophenyl)(methyl-d3)carbamate] | 5.4 |
| [2H]C([2H])([2H])N(C(=O)Oc1c(N2CCN(CC(O)CNC)C2=O)cc(C(F)(F)F)cc1C(F)(F)F)c1ccc(F)c(Cl)c1F (stereo not drawn) [Example 44, 2-(3-(2-hydroxy-3-(methylamino)propyl)-2-oxoimidazolidin-1-yl)-4,6-bis(trifluoromethyl)phenyl (3-chloro-2,4-difluorophenyl)(methyl-d3)carbamate] | 7 |
| CNCC(O)CN1CCN(c2cc(C(F)(F)F)cc(C(F)(F)F)c2OC(=O)N(C)c2ccc(F)c(Cl)c2F)C1=O (stereo not drawn) [Example 47, 2-(3-(2-hydroxy-3-(methylamino)propyl)-2-oxoimidazolidin-1-yl)-4,6-bis(trifluoromethyl)phenyl (3-chloro-2,4-difluorophenyl)(methyl)carbamate] | 4.8 |

Same assay, conditions: 5 nM Polq polymerase domain (residues 1792-2590), 60 nM primer-template, 50 uM dNTPs, 37 °C, 18 min; read-out: IC50 (nM) Polq

| SMILES | IC50 [nM] |
| --- | --- |
| O=C1NCCN1c1cc(C(F)(F)F)cc(C(F)(F)F)c1OC(=O)N(c1ccc(F)cc1)C1CC1 [Example 31, 2,4-bis(trifluoromethyl)-6-(2-oxoimidazolidin-1-yl)phenyl cyclopropyl4-fluorophenylcarbamate] | 31 |
| CN(C(=O)Oc1c(N2CCNC2=O)cc(C(F)(F)F)cc1C(F)(F)F)c1ccccc1CC#N [Example 33, 2,4-bis(trifluoromethyl)-6-(2-oxoimidazolidin-1-yl)phenyl 2-(cyanomethyl)phenylmethylcarbamate] | 590 |
| [2H]C([2H])([2H])N(C(=O)Oc1c(N2CCN(CC(O)CNC)C2=O)cc(C(F)(F)F)cc1C(F)(F)F)c1ccc(F)cc1 (stereo not drawn) [Example 45, 2-(3-(2-hydroxy-3-(methylamino)propyl)-2-oxoimidazolidin-1-yl)-4,6-bis(trifluoromethyl)phenyl (4-fluorophenyl)(methyl-d3)carbamate] | 6.1 |
| [2H]C([2H])([2H])N(C(=O)Oc1c(N2CCN(CC(O)CN(C)C)C2=O)cc(C(F)(F)F)cc1C(F)(F)F)c1ccc(F)cc1 (stereo not drawn) [Example 46, 2-(3-(3-(dimethylamino)-2-hydroxypropyl)-2-oxoimidazolidin-1-yl)-4,6-bis(trifluoromethyl)phenyl (4-fluorophenyl)(methyl-d3)carbamate] | 5.5 |
